In a compilation of properties of binary mixtures (doi:10.1016/j.molliq.2018.09.007):

Experiment: xn = mol fraction of the nth substance listed
Settings: 100 kPa

CC[n+]1ccn(C)c1.O=S(=O)([O-])C(F)(F)F + OCCO
Settings	speed of sound [m/s]	viscosity [mPa·s]
298.15 K, x2 = 0.0943	1446	36.77
298.15 K, x2 = 0.2021	1453.2	29.22
298.15 K, x2 = 0.2937	1457.1	24.13
298.15 K, x2 = 0.408	1464.6	20.68
298.15 K, x2 = 0.5013	1473.4	18.72
298.15 K, x2 = 0.6019	1488.5	17.52
298.15 K, x2 = 0.6917	1510.9	16.97
298.15 K, x2 = 0.8964	1586.6	16.51
303.15 K, x2 = 0.2021	1442.1	24.77
303.15 K, x2 = 0.2937	1445.9	20.6
303.15 K, x2 = 0.408	1453.3	17.93
303.15 K, x2 = 0.5013	1462.1	16.38
303.15 K, x2 = 0.6019	1477.2	15.41
303.15 K, x2 = 0.6917	1499.5	14.89
303.15 K, x2 = 0.798	1532.6	14.39
303.15 K, x2 = 0.8964	1575.1	13.74
308.15 K, x2 = 0.0943	1423.9	26.23
308.15 K, x2 = 0.2021	1430.9	21.17
308.15 K, x2 = 0.2937	1434.8	17.74
308.15 K, x2 = 0.408	1442.2	15.7
308.15 K, x2 = 0.5013	1451	14.49
308.15 K, x2 = 0.6917	1488.2	13.23
308.15 K, x2 = 0.798	1521.5	12.63
313.15 K, x2 = 0.0943	1412.8	22.47
313.15 K, x2 = 0.2021	1419.9	18.26
313.15 K, x2 = 0.2937	1423.8	15.41
313.15 K, x2 = 0.5013	1439.9	12.93
313.15 K, x2 = 0.6019	1454.8	12.31
313.15 K, x2 = 0.6917	1477	11.88
313.15 K, x2 = 0.798	1509.9	11.22
313.15 K, x2 = 0.8964	1552.1	10.22
318.15 K, x2 = 0.2021	1409.1	15.91
318.15 K, x2 = 0.2937	1412.9	13.52
318.15 K, x2 = 0.408	1420.2	12.38
318.15 K, x2 = 0.5013	1428.8	11.66
318.15 K, x2 = 0.6019	1443.7	11.17
318.15 K, x2 = 0.6917	1465.7	10.76
318.15 K, x2 = 0.798	1498.5	10.07
318.15 K, x2 = 0.8964	1540.6	8.97
323.15 K, x2 = 0.2937	1402	11.94
323.15 K, x2 = 0.5013	1417.9	10.58
323.15 K, x2 = 0.6019	1432.7	10.2
323.15 K, x2 = 0.6917	1454.6	9.84
323.15 K, x2 = 0.798	1487.2	9.13
323.15 K, x2 = 0.8964	1529.1	7.95
